The values that follow come from patent US20170107179A1 (Tetraphase Pharmaceuticals, Inc., priority 2010, published 2017).

The test system of assay [1] is Gram-negative and Gram-positive organisms (clinical isolates). The assay is described as follows: Broth microdilution MIC against clinical isolates (CLSI M7-A8), Table 9. Format: cell-based. On the technique in general: In broth dilution the organism is exposed to a series of concentrations in liquid medium.
In another assay the test system is S. aureus Smith. The experiment in a line: Mouse systemic infection (septicemia) model, CD-1 mice. Conditions: Staphylococcus aureus, in Mus musculus, 48 h; for responders at 3 mg/kg: iv, read-out: Percent survival at 48 hours, IV (3 mg/kg); for responders at 30 mg/kg: po, read-out: Percent survival at 48 hours, PO (30 mg/kg).
The mark [2] stands for this setting: Klebsiella aerogenes, Enterobacter aerogenes, n=30.
Where [3] appears, read: Klebsiella pneumoniae, Klebsiella pneumonia, n=27.
Setting [4] is: Stenotrophomonas maltophilia, n=29.
[5] abbreviates: Streptococcus intermedius, n=30.

Each structure is given as a SMILES string. ≈ marks a conversion by molar mass, not a printed value. Read-outs that look alike come from different tables or passages of the source.

As for `CC(C)(O/N=C(\C(=O)N[C@@H]1C(=O)N2C(C(=O)[O-])=C(C[n+]3ccccc3)CS[C@H]12)c1csc(N)n1)C(=O)O` [Ceftazidime], the MIC50 is 1 µg/mL (≈ 1.83 µM) in assay [1] (Acinetobacter lwoffii, n=29); > 64 µg/mL in assay [1] (Enterobacter cloacae, n=29); 64 µg/mL (≈ 117 µM) in assay [1] (Escherichia coli, n=40); ≤ 0.5 µg/mL in assay [1] (Kiebsielia oxytoca, n=30); ≤ 0.5 µg/mL in assay [1] (setting [2]); > 64 µg/mL in assay [1] (setting [3]). For the same molecule, the MIC50 in assay [1] (Morganella morganii, n=30) is ≤ 0.5 µg/mL; in assay [1] (Proteus vulgaris, n=29), ≤ 0.5 µg/mL; in assay [1] (Salmonella species, n=30, read-out: MIC50), ≤ 0.5 µg/mL; in assay [1] (Serratia marcescens, n=30), ≤ 0.5 µg/mL; in assay [1] (setting [4]), 8 µg/mL (≈ 14.6 µM). For the same molecule, the MIC90 in assay [1] (Acinetobacter lwoffii, n=29) is 16 µg/mL (≈ 29.3 µM); in assay [1] (Enterobacter cloacae, n=29), > 64 µg/mL; in assay [1] (Escherichia coli, n=40), > 64 µg/mL; in assay [1] (Kiebsielia oxytoca, n=30) it was ≤ 0.5 µg/mL; in assay [1] (setting [2]) it was 16 µg/mL (≈ 29.3 µM); in assay [1] (setting [3]), > 64 µg/mL. The MIC90 was 4 µg/mL (≈ 7.32 µM) in assay [1] (Morganella morganii, n=30); > 64 µg/mL in assay [1] (Proteus vulgaris, n=29); ≤ 0.5 µg/mL in assay [1] (Serratia marcescens, n=30); > 64 µg/mL in assay [1] (setting [4]).

Take `CCC[C@@H]1C[C@@H](C(=O)N[C@@H]([C@H]2O[C@H](SC)[C@H](O)[C@@H](O)[C@H]2O)[C@H](C)Cl)N(C)C1` [Clindamycin]: the MIC50 was 0.03 µg/mL (≈ 0.0706 µM) in assay [1]; 0.06 µg/mL (≈ 0.141 µM) in assay [1] (Staphylococcus aureus, Staphylococcus aureus (MRSA PVL+), n=30, read-out: MIC50); ≤ 0.015 µg/mL in assay [1] (Streptococcus anginosus, n=20); ≤ 0.015 µg/mL in assay [1] (setting [5]); 0.03 µg/mL (≈ 0.0706 µM) in assay [1] (Streptococcus mitis, n=29). In addition, the MIC90 in assay [1] came out at 0.06 µg/mL (≈ 0.141 µM); in assay [1] (Staphylococcus aureus, Staphylococcus aureus (MRSA PVL+), n=30, read-out: MIC90), 0.12 µg/mL (≈ 0.282 µM); in assay [1] (Streptococcus anginosus, n=20), 0.03 µg/mL (≈ 0.0706 µM); in assay [1] (setting [5]) it was 0.06 µg/mL (≈ 0.141 µM); in assay [1] (Streptococcus mitis, n=29), 0.06 µg/mL (≈ 0.141 µM).

As to `CCC(C)(C)N1Cc2c(O)c3c(c(N(C)C)c2C1)C[C@H]1C[C@H]2[C@H](N(C)C)C(O)=C(C(N)=O)C(=O)[C@@]2(O)C(O)=C1C3=O` [Compound 103], in the assay with S. aureus Smith, the responders at 3 mg/kg was found to be 83% and the responders at 30 mg/kg worked out at 100%.

On to `CC(C)[C@@H](C)N1Cc2c(O)c3c(c(F)c2C1)C[C@H]1C[C@H]2[C@H](N(C)C)C(O)=C(C(N)=O)C(=O)[C@@]2(O)C(O)=C1C3=O` [Compound 106], for which, in the assay on S. aureus Smith, the responders at 3 mg/kg amounted to 17% and the responders at 30 mg/kg was 20%.

For the molecule `CC[C@H](C)N1Cc2c(O)c3c(c(Cl)c2C1)C[C@H]1C[C@H]2[C@H](N(C)C)C(O)=C(C(N)=O)C(=O)[C@@]2(O)C(O)=C1C3=O` [Compound 110], in the assay on S. aureus Smith, the responders at 3 mg/kg is 33% and the responders at 30 mg/kg is 50%.

For `CN(C)[C@@H]1C(O)=C(C(N)=O)C(=O)[C@@]2(O)C(O)=C3C(=O)c4c(O)c5c(c(C(F)(F)F)c4C[C@H]3C[C@@H]12)CN(C(C)(C)C)C5` [Compound 112], in the assay with S. aureus Smith, the responders at 3 mg/kg stood at 100% and the responders at 30 mg/kg stood at 20%.

Turning to `CN(C)c1c2c(c(O)c3c1C[C@H]1C[C@H]4[C@H](N(C)C)C(O)=C(C(N)=O)C(=O)[C@@]4(O)C(O)=C1C3=O)CN(C(C)(C)C)C2` [Compound 115], in the assay on S. aureus Smith, the responders at 3 mg/kg was 100% and the responders at 30 mg/kg amounted to 100%.

One may read the MIC50 as the lowest concentration that inhibits either 50% of growth or 50% of the strains tested, depending on the study. As usually defined, the MIC90 is an inhibitory concentration at the 90% level, which refers to growth in some studies and to a panel of isolates in others.
